Entries after “also recorded” stand apart in the source; their conditions may differ. Counter-ions that a name gives are not always drawn. Like-named read-outs stand apart in the source and are kept apart here.
What was measured:
Assay type in all cases: physicochemical
[1] = Solubility by UV-Visible spectroscopy in aqueous 0.1 M HCl (pH 1) at 22° C.; details: for solubility: pH 1; for solubility at 24 h: 22 °C, pH 1, simulated gastric fluid, thermodynamic from solid
Procedure: The solubility of crystalline lercanidipine besylate, napadisylate and hydrochloride and amorphous lercanidipine besylate was evaluated by UV-Visible spectroscopy in aqueous 0.1 M HCl (pH 1) at 22° C. Suspensions of approximately 0.3 mg/ml of the respective compounds were prepared in an aqueous 0.1 M HCl and equilibrated by shaking for 24 hours. Following equilibration, the samples were filtered (0.1 μm filter) and the concentration was determined photometrically using Perkin Elmer Lambda 16 (Überlingen, Germany). Reference measurements were performed with 20% acetonitrile as a co-solvent.

[2] = Hygroscopicity by DVS analysis (water absorption analyzer); details: humidity cycling between 0 and 95% RH at 25° C.
Procedure: The hygroscopicity of both amorphous and crystalline lercanidipine salts was determined by DVS analysis using a water absorption analyzer (Surface Measurement System Ltd., Marion, Buckinghamshire, UK). The analysis were carried out according to the following conditions: 10-15 mg of sample were placed on a quartz or platinum holder, the holder was placed in-turn on a microbalance, and the sample underwent humidity cycling between 0 and 95% relative humidity (RH) at 25° C. (50-95-0-95-0-50% at a rate of 5% RH/hr).

[3] = Stability of crystalline salts (statement, no method)

solubility [1] [µg/mL] | Hygroscopicity [2] | solubility at 24 h ([1]; Solubility) [µg/mL] | solubility at 24 h ([1]; solubility in 0.1 N HCl) [µg/mL] | solubility compared with other salt forms [1] | solubility in 0.1 M HCl at 22° C. [1] | stability [3] | solubility in 0.1 M HCl at 22° C. ([1]; 0.1 M HCl, 22° C.) | Compound | solubility compared with other salt forms ([1]; 0.1 M / 0.1 N HCl, comparison in words)
155 | non-hygroscopic | – | – | – | – | – | – | lercanidipine besylate [Amorphous besylate] | –
– | – | 10 | ~10 | – | – | – | – | COC(=O)C1=C(C)NC(C)=C(C(=O)OC(C)(C)CN(C)CCC(c2ccccc2)c2ccccc2)C1c1cccc([N+](=O)[O-])c1 (stereo not shown) [Crystalline hydrochloride, lercanidipine hydrochloride, reference compound] | –
3.5 | hygroscopic | – | – | lower solubility than the amorphous salt | about 3.5 mg/L | good stability | – | COC(=O)C1=C(C)NC(C)=C(C(=O)OC(C)(C)CN(C)CCC(c2ccccc2)c2ccccc2)C1c1cccc([N+](=O)[O-])c1.COC(=O)C1=C(C)NC(C)=C(C(=O)OC(C)(C)CN(C)CCC(c2ccccc2)c2ccccc2)C1c1cccc([N+](=O)[O-])c1.O=S(=O)(O)c1cccc2c(S(=O)(=O)O)cccc12 (stereo not shown) [Crystalline napadisylate, lercanidipine napadisylate] | –
– | non-hygroscopic | – | – | – | – | good stability | about 87 mg/L | lercanidipine besylate [Crystalline besylate] | lower solubility than the amorphous salt; also recorded: substantially more soluble than either crystalline hydrochloride or napadisylate

Reference: patent US7683179B2, “Lercanidipine salts” (Recordati Ireland Limited, priority 2004, dated 2010)
